Experimental findings from PubChem BioAssay (NCI) are described below.

Each structure is given as a SMILES string. Where “and” joins values, the source holds several entries; their conditions need not be identical. Identical values can stand only once.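 Each compound was tested at five concentrations against cells in 96-well plates for 48 hours. GI50 marks 50% less growth. Definition used: TGI = concentration required for complete inhibition of growth.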

Some test systems named below: A549 NSCLC; CCRF-CEM leukemia; HCT-15 colon; HOP-92 NSCLC; HT29 colon; LOX IMVI melanoma; MALME-3M melanoma; SK-MEL-5 melanoma; HCC-2998 colon.
Test in all cases: NCI anticancer screen, dose series, 48 h

On to `COc1cc(CCc2ccc(OCCN(C)C)cc2)cc(OC)c1OC`, for which the TGI in the experiment with A549 NSCLC, in the experiment on CCRF-CEM leukemia, in the experiment on HCT-15 colon, with HOP-92 NSCLC, in the experiment with HT29 colon and in the experiment with LOX IMVI melanoma was more than 100 µM throughout. The TGI was more than 100 µM in the experiment with MALME-3M melanoma and 64.6 µM with SK-MEL-5 melanoma.
`Cn1c(=O)nc2n(-c3ccc(Cl)cc3)c3ccc(Cl)cc3nc-2c1=O`: the TGI with A549 NSCLC was more than 100 µM; in the experiment with CCRF-CEM leukemia, 85.6 µM; in the experiment on HCC-2998 colon, 40.6 µM; in the experiment on HCT-15 colon it was 26.5 µM; in the experiment on HOP-92 NSCLC, 25.1 µM; with HT29 colon, 59.2 µM. For the same molecule, the TGI in the experiment with LOX IMVI melanoma is 13.1 µM; in the experiment with SK-MEL-5 melanoma it was 2.37 µM.
`Cc1cnc2c(C)ccc([N+](=O)[O-])c2c1NCCCN(C)C`: the TGI in the experiment on A549 NSCLC, in the experiment on CCRF-CEM leukemia, in the experiment on HCC-2998 colon, with HCT-15 colon, in the experiment with HT29 colon and in the experiment with LOX IMVI melanoma was more than 100 µM throughout. The molecule also displayed a TGI with MALME-3M melanoma of more than 100 µM.
In the case of `O=C1C(=O)N(C(=O)c2ccc(Cl)c(Cl)c2)c2ccccc21`, the TGI in the experiment with A549 NSCLC, in the experiment on CCRF-CEM leukemia, in the experiment with HT29 colon, with LOX IMVI melanoma and with SK-MEL-5 melanoma was more than 100 µM each time.
Consider `CC1=C(C)C(=O)c2c(cc3ccc4ccccc4n23)C1=O`, for which the TGI in the experiment on A549 NSCLC, in the experiment on CCRF-CEM leukemia, with HCC-2998 colon, in the experiment on HCT-15 colon, with HT29 colon and in the experiment on LOX IMVI melanoma was more than 100 µM throughout. Also, the TGI in the experiment with MALME-3M melanoma and with SK-MEL-5 melanoma was more than 100 µM throughout.
Take `CC[C@H](C)N(CCN)C(=O)c1cc2ccccc2c(-c2ccccc2Cl)n1`: the TGI was more than 100 µM in the experiment with A549 NSCLC; 15.7 µM with CCRF-CEM leukemia; 9.06 µM in the experiment on HCC-2998 colon; 16.1 µM in the experiment with HCT-15 colon; 20.5 µM with HT29 colon; 27.7 µM in the experiment with LOX IMVI melanoma.
On to `COc1cc(OC)c([C@@H]2OC(=O)C3C2C(=O)O[C@H]3c2cc(OC)c(OC)cc2OC)cc1OC` (some centres not stated), for which the TGI was more than 100 µM with A549 NSCLC; more than 100 µM in the experiment with CCRF-CEM leukemia; more than 100 µM in the experiment on HCC-2998 colon; more than 100 µM in the experiment on HCT-15 colon; more than 10 µM in the experiment with HOP-92 NSCLC; more than 100 µM in the experiment on HT29 colon.
As for `N#Cc1cn(C2OC(CO)C(O)C2O)c2ncnc(N)c12` (configuration not stated), the GI50 was less than 0.01 µM with A549 NSCLC; 0.045 µM with CCRF-CEM leukemia; 0.0609 µM and 0.0758 µM and < 0.0249 µM in the experiment with HCC-2998 colon; less than 0.0117 µM with HCT-15 colon; 0.000461 µM in the experiment with HOP-92 NSCLC; less than 0.01 µM in the experiment on HT29 colon. The GI50 in the experiment with LOX IMVI melanoma was less than 0.01 µM; in the experiment with SK-MEL-5 melanoma, 0.0416 µM. Further, the TGI is more than 450 µM with A549 NSCLC; 0.216 µM and 0.84 µM and 0.0961 µM in the experiment with CCRF-CEM leukemia; 0.665 µM and 0.182 µM in the experiment with HOP-92 NSCLC; 0.109 µM with SK-MEL-5 melanoma.
Consider `Cc1cc2c(c(C#N)c1C)NC(=O)CCC2=O`, for which the TGI in the experiment with A549 NSCLC, with CCRF-CEM leukemia, in the experiment on HCC-2998 colon, in the experiment with HCT-15 colon and in the experiment on HT29 colon was more than 100 µM throughout.
Regarding `N#CCC(=O)Nc1cccc(C(F)(F)F)c1`, the TGI with A549 NSCLC, in the experiment with CCRF-CEM leukemia, in the experiment on HCC-2998 colon, in the experiment with HCT-15 colon, with HT29 colon and in the experiment with LOX IMVI melanoma was more than 100 µM each time. Also, the TGI with MALME-3M melanoma and in the experiment on SK-MEL-5 melanoma was more than 100 µM in each case.
Take `CNC(P(=O)([O-])[O-])P(=O)([O-])[O-].N.N.[Pt+2]`: the GI50 with A549 NSCLC, in the experiment with HCC-2998 colon, in the experiment with HCT-15 colon, in the experiment with LOX IMVI melanoma and in the experiment on MALME-3M melanoma was more than 100 µM in each case. Further, the TGI in the experiment on A549 NSCLC, in the experiment on HCC-2998 colon, in the experiment on HCT-15 colon, in the experiment with LOX IMVI melanoma and in the experiment with MALME-3M melanoma was more than 100 µM each time.
As for `Cn1c2c(c3ccccc31)CCN(CCCCN1CCc3c(n(C)c4ccccc34)C1=O)C2`, the TGI with A549 NSCLC, with CCRF-CEM leukemia, with HCT-15 colon, with HOP-92 NSCLC, in the experiment on HT29 colon and in the experiment on MALME-3M melanoma was more than 100 µM each time. Further, in the experiment on SK-MEL-5 melanoma, the TGI is more than 100 µM.
With `Cc1cc(C)nc(NS(=O)(=O)c2ccc(Nc3c4ccccc4nc4c(C(=O)Nc5ccc(S(=O)(=O)N=C(N)N)cc5)ccc(Cl)c34)cc2)n1`, the TGI with A549 NSCLC is more than 100 µM; in the experiment with HCC-2998 colon, 38.4 µM; in the experiment with HT29 colon it was more than 100 µM; in the experiment with LOX IMVI melanoma, 34.7 µM; in the experiment with MALME-3M melanoma, more than 100 µM; in the experiment with SK-MEL-5 melanoma, more than 100 µM.
As for `CC1=C(C(=O)Nc2c(C)cccc2C)C(c2ccc3c(c2)OCO3)C(C(=O)Nc2c(C)cccc2C)=C(C)N1`, the TGI was determined as 59 µM in the experiment with A549 NSCLC; 41.9 µM with CCRF-CEM leukemia; 32.3 µM with HCC-2998 colon; 30.2 µM in the experiment with HT29 colon; 28.1 µM in the experiment on LOX IMVI melanoma; 45.7 µM in the experiment on MALME-3M melanoma.
